Tested on: mouse inflammatory bowel disease model (DSS)
Assay: Efficacy in mouse inflammatory bowel disease model with 5-ASA control (Example 7)
Format: in vivo
Conditions: 50 mg/kg, compared with the other groups
Text: As the symptoms of inflammatory bowel disease were aggravated, systemic inflammations may be caused through the release of inflammatory cytokines in the blood, and therefore, an effective anti-inflammatory medicine was thought to inhibit the release of inflammatory substances in the spleen, liver, kidney, or the like to prevent the inflammations, and thus this was investigated.

`Nc1ccc(O)c(C(=O)O)c1` [5-ASA, 5-aminosalicylic acid] was tested, and the spleen weight was “spleen weight was high”.

Source: patent US20230355513A1, “PARTICLES INCLUDING CHITOSAN-BILIRUBIN CONJUGATE, AND ORAL PHARMACEUTICAL COMPOSITION INCLUDING SAME” (KOREA ADVANCED INSTITUTE OF SCIENCE AND TECHNOLOGY, priority 2021, published 2023)
